The term IC50 denotes the concentration needed to halve the response being measured. Usually viability stands for a read-out of living cells in per cent, often relative to untreated cells.

The source of these data is publication PMC9032987, “Cytotoxic Alkylynols of the Sponge Cribrochalina vasculum: Structure, Synthetic Analogs and SAR Studies” (Marine Drugs, 2022).

The subject of data set [1] is NSCLC U-1810 cells. Kind of data set: MTT cytotoxicity assay in NSCLC U-1810 cells. To be noted: for IC50: U-1810, 72 h, MTT, 72 h post addition, estimated from cell viability curve. The format is cell-based, human. The procedure: (§1) Cytotoxicity structure-activity relationship analyses of compounds in NSCLC tumor cells and fibroblasts. Stock solutions (10 mg/mL) of the compounds to be tested were made in DMSO and further diluted with cell culture media prior to structure-activity relationship (SAR) screening as earlier described. To assess anti-tumor activity, the large cell lung carcinoma cell line NSCLC U-1810 (kind gift from Uppsala University) and diploid lung fibroblasts WI-38 [30] were used. U-1810 cells were propagated in RPMI-1640 medium (Sigma-Aldrich, St. Louis, […], USA) supplemented with FBS (10% HyClone) and L-glutamine (2 mmol/L, Invitrogen) while WI-38 fibroblasts were cultured in Eagle’s Minimum Essential Medium (Sigma-Aldrich) with 15% FBS and L-glutamine. For SAR assessment the cytotoxic assay 3-(4,5-dimethylthiazol-2-yl)-2,5 diphenyltetrazolium bromide (MTT) was applied. Profiling of U-1810 cells was carried out at 80% confluency (obtained by seeding 5000 cells/well in a 96-well plate for 24 h prior to treatment) and of WI-38 at 100% confluency (obtained by seeding 18,000 cells/well in a 96-well plate for 24 h prior to compound addition), the later to mimic the behavior of fibroblasts in the human body where they are non-dividing. For SAR evaluation, different concentrations of the compounds were added to fresh media while untreated cells were treated with DMSO corresponding to the amount applied when testing the highest concentration of the different compounds. The cytotoxicity of the compounds was assessed at 72 h post addition to cells by adding MTT solution (0.5 mg/mL, Sigma-Aldrich, 4 h at 37 °C) and dissolving the resulting formazan crystals in an SDS-containing solution (10% SDS and 0.01 mol/L HCl). Absorbance was quantified at 595 nm and the compound-induced cytotoxicity was calculated relative to that observed in DMSO-treated cells. The IC50 values were deduced from survival plots drawn in Graph Pad PRISM software vers.6 and for some of the compounds extrapolated as indicated in footnotes to Table 1.

In data set [2] the test system is NSCLC U-1810 cells. On the set-up: method as in PMID 25319389. To be noted: 72 h; cited from earlier work.
Data set [3] relates to WI-38 diploid lung fibroblasts. Also noted: method as in PMID 25319389. To be noted: 72 h; cited from earlier work.
The nature of data set [4]: MTT cytotoxicity assay in diploid lung fibroblasts WI-38. Type of data set: cell-based, human. To be noted: human, WI-38 diploid lung fibroblasts, 72 h, read-out: cell viability. The procedure: as §1
(In general: Formazan colour is commonly taken as a measure of viable cells.)

Data set [5] relates to WI-38 diploid lung fibroblasts. The data set is described as above. Type of data set: cell-based, human. The conditions noted are these: Homo sapiens, WI-38, 72 h, MTT, 72 h post addition, confluent cells, estimated from cell viability curve. As for the experimental part: as §1
Setting [6] is: calculated at IC50 (WI-38 IC50 / U-1810 IC50).
The mark [7] stands for this setting: calculated at IC50 of U-1810 and the highest dose applied in WI-38 (IC50 not reached).

Read-outs that look alike come from different tables or passages of the source.

Take `C#C[C@H](O)/C=C/CCCCCCCCC(C)CCCCCCCC` (stereo partly drawn) [Compound 23, (3R)-14-Methyldocos-(4E)-en-1-yn-3-ol]: in the data set with NSCLC U-1810 cells [1], the “cytotoxic activity in NSCLC U-1810 cells (in words)” value is “equally active”. In the data set with NSCLC U-1810 cells [1] (setting [6]), the “Selectivity NSCLC cells (U-1810) vs. diploid fibroblasts (WI-38)” value (shortened to “Selectivity NSCLC cells”) is on record as 12.1. For the same molecule, the half-maximal inhibitory concentration (IC50) in the data set with NSCLC U-1810 cells [2] is 0.8 µM; in data set [3], 9.7 µM.
For `C#CC(CCCCCCCCCCCCCCC)OC` (racemic) [rac-38, 3-Methoxyoctadec-1-yne], the “tumor selective cytotoxicity NSCLC vs WI-38 (in words)” value in the data set with NSCLC U-1810 cells [1] is recorded as “did not display any specific cytotoxicity”. Besides, the IC50 (in the data set on NSCLC U-1810 cells [1] (Homo sapiens); in data set [5]) was over 179 µM in each case. Also, in the data set on NSCLC U-1810 cells [1] (Homo sapiens, U-1810, at 179 µM, 72 h, read-out: cell viability), the viability at 179 µM is about 71%. In addition, in data set [4] (WI-38, at 179 µM), the viability at 72 h, 179 µM is about 77%.
Take `C#CC(CCCCCCCCCCCCCCC)OS(=O)(=O)c1ccc(C)cc1` (racemic) [rac-35, Octadec-1-yn-3-yl 4-methylbenzenesulfonate]: the IC50 with NSCLC U-1810 cells [1] (Homo sapiens) was 23 µM; in data set [5], over 119 µM. Besides, the “Selectivity NSCLC cells” value in the data set with NSCLC U-1810 cells [1] (setting [7]) was >5.2 ^s. Also, the viability at 72 h, 119 µM in data set [4] (WI-38, at 119 µM) is about 85%.
Take `C#CC(Cl)CCCCCCCCCCCCCCC` (racemic) [rac-36, 3-chlorooctadec-1-yne]: the “tumor selective cytotoxicity NSCLC vs WI-38 (in words)” value in the data set with NSCLC U-1810 cells [1] is on record as “did not display any specific cytotoxicity”. Further, the half-maximal inhibitory concentration (IC50) in the data set with NSCLC U-1810 cells [1] (Homo sapiens) was 140 µM; in data set [5], over 175 µM. For the same molecule, the “Selectivity NSCLC cells” value in the data set on NSCLC U-1810 cells [1] (setting [7]) is on record as >1.3 ^u. Besides, the viability at 72 h, 175 µM in data set [4] (WI-38, at 175 µM) is about 75%.
With `C#C[C@H](O)/C=C/CCCCCCCCCCCCCCC` [scal-18, (3R)-Icos-(4E)-en-1-yn-3-ol], the “cytotoxic activity in NSCLC U-1810 cells (in words)” value in the data set with NSCLC U-1810 cells [1] is given as “equally active”. Further, the “Selectivity NSCLC cells” value in the data set on NSCLC U-1810 cells [1] (setting [6]) is listed as 14.6. The IC50 in the data set with NSCLC U-1810 cells [2] was 0.5 µM; in data set [3], 7.3 µM.
